These results are taken from US20070015733A1, “Aryl Phosphate Derivatives of d4T having Activity Against Resistant HIV Strains” (Parker Hughes Institute, priority 1998, published 2007).

Data set [1] has as its system zidovudine-resistant primary clinical HIV-1 isolates in CD4-expressing HeLa cell line HT4-6C. The experiment in a line: Syncytial focus (plaque) formation assay in HT4-6C cells. The class given is cell-based. Conditions: Human immunodeficiency virus 1, HeLa. The method, then:
Plaque formation assays. The syncytial focus (plaque) assay permits quantitation of infectivity of HIV. In brief, a CD4-expressing HeLa cell line (HT4-6C) (AIDS Research and Reference Reagent Program, NIAID) is cultured in 24-well tissue culture plates at 2.5-3.0×10^4 cells/ml in the presence of virus inoculum (100 plaque forming units) and several concentrations of the antiviral agent. The virus was added first for a 2 hr incubation time prior to addition of the antiviral agents. […] Percent inhibition of plaque formation was calculated by comparing the plaque numbers from the test substance-treated infected cells with the plaque numbers from untreated infected cells (i.e., virus controls).

Data set [2] deals with AZT-sensitive HIV-1 (strain: HTLVIIIB). The experiment in a line: Inhibition of HIV-1 HTLVIIIB in PBMC, RT activity assays (Example 14). The class given is cell-based. Conditions: Human immunodeficiency virus 1, PBMC.
Description: The compounds, as well as AZT, were tested for their ability to inhibit HIV replication in peripheral blood mononuclear cells using previously described procedures (Zarling et. al., 1990 Nature 347:92; Erice et. al., 1993 Antimicrob. Agents Chemother. 37:835; Uckun et. al., 1998 Antimicrob. Agents Chemother. 42:383). […] Percent viral inhibition was calculated by comparing the RT activity values from the test substance-treated infected cells with RT values from untreated infected cells (i.e., virus controls).
Data set [3] in a line: Stability in plasma, whole blood, gastric fluid and intestinal fluid. It counts as in vitro ADME. The protocol: Ala-d4T-MP is stable both in plasma and in whole blood. […] This hypothesis is consistent with the formation of a significant amount of d4T after incubation of d4T-5′-[p-bromophenyl methoxyalaninyl phosphate] with a liver homogenate.
Orally administered d4T-5′-[p-bromophenyl methoxyalaninyl phosphate] also yielded Ala-d4T-MP and d4T as the major metabolites. […] This metabolite can be absorbed in the intestine and then further metabolized to yield d4T in the blood. The tmax and t1/2 values for d4T in mice were longer when derived from orally administered d4T-5′-[p-bromophenyl methoxyalaninyl phosphate] (42.4 minutes and 99.0 minutes, respectively) than from orally administered d4T (5 minutes and 18 minutes, respectively). The tmax value is higher but the t1/2 value is lower for orally administered d4T-5′-[p-bromophenyl methoxyalaninyl phosphate] compared to intravenously administered d4T-5′-[p-bromophenyl methoxyalaninyl phosphate]. […] However, the bioavailability of d4T metabolized from d4T-5′-[p-bromophenyl methoxyalaninyl phosphate] (48%) was lower than that of orally administered d4T (98%).

The conditions of data set [4]: cited from earlier work.
Data set [5] has as its system peripheral blood mononuclear cells. Description: Microculture tetrazolium assay (MTA) cytotoxicity in PBMNC. Conditions: viability of PBMC. The protocol: Percent inhibition of viral replication was calculated by comparing the p24 and RT activity values from the test substance-treated infected cells with those from untreated infected cells. In parallel, the cytotoxicity of the compounds was examined using a microculture tetrazolium assay (MTA) of cell proliferation, as described.in the Zarling, Enrice, and Uckun articles Supra).
Cellular Assays of Anti-HIV Activity and Cytotoxicity. […] Percent viral inhibition was calculated by comparing the RT activity values from the test substance-treated infected cells with RT values from untreated infected cells (i.e., virus controls).
Antiviral susceptibility assays. Phenotypic drug susceptibility studies of HIV-1 isolates and strains were performed by measuring the production of the p24 gag protein in peripheral blood mononuclear cells (PBMC) from seronegative healthy volunteers in the presence of increasing concentrations of the anti-HIV agent using the quantitative Coulter HIV-1 p24 antigen ezyme immunoassay (EIA) and HIV-1 p24 Antigen Kinetic Standard (Beckman Coulter), as previously described (Uckun, 1998, Antimicrobial Agents and Chemotherapy 37(4): 835-38). Informed consent was obtained from the blood donors according to DHHS guidelines using consent forms approved by the Institutional Review Board. In brief, PBMC were cultured for 72 h in RPMI 1640 medium (Gibco) supplemented with 20% (vol/vol) heat-inactivated fetal bovine serum, 5% human interleukin-2 (Zeptometrix), 2 mM L-glutamine, 25 mM HEPES, 2 g/L NaHCO3, 100 U/ml penicillin/streptomycin (Gibco), 50 μg/ml gentamicin (Gibco), and 5 μg/ml phytohemagglutinin-P (PHA-P) (Sigma) for 24-72 hours prior to exposure to HIV at a multiplicity of infection of 0.001-0.1 during a 1-h adsorbtion period at 37±1° C. in a humidified 5-7% CO2 atmosphere. Subsequently, cells were cultured in 96-well microtiter plates (100 μl/well; 2×10^6 cells/ml, triplicate wells) in the presence of the anti-HIV agents at 6-7 different concentrations ranging from 0.0001 μM to 100 μM, and 25 μL aliquots of culture supernatants were removed from the wells on day 6 after infection for p24 EIA, as previously described (Uckun, 1998, Antimicrobial Agents and Chemotherapy, 37(4):835-38). Controls included uninfected and untreated cells (background control) and infected but untreated (virus control) cells. The p24 EIA utilizes a murine monoclonal antibody to HIV core protein used to coat microwell strips to which the antigen present in the test culture supernatant samples binds. Percent inhibition of viral replication was calculated by comparing the p24 values from the test substance-treated infected cells with p24 values from untreated infected cells (i.e., virus controls). The IC50 values were determined using the Statview statistics program (SAS Institute, Inc.). In parallel, the effects of various treatments on cell viability were also examined as previously described (Uckun, 1998, Antimicrobial Agents and Chemotherapy, 42:383-388). In brief, noninfected PBMC were treated with each compound for 5 days under identical experimental conditions. A microculture tetrazolium assay (MTA) was performed to quantitate cellular proliferation (Uckun, 1998, Antimicrobial Agents and Chemotherapy, 42:383-388).
In parallel, the cytotoxicity of the compounds was examined using a microculture tetrazolium assay (MTA) of cell proliferation, as described (in the Zarling, Enrice, and Uckun articles Supra).

Data set [6] deals with human T-cell line MT2. Description: Cytotoxicity in MT2 cells. The class given is cell-based. Conditions: even at a 100 μM concentration. An excerpt:
Dozens of mutant strains have been characterized as resistant to NNRTI compounds, including L1001, K103N, V106A, E138K, Y181C and Y188H/L. In particular, the Y181 C and K103N mutants may be the most difficult to treat, because they are resistant to most of the NNRTIs compounds that have been examined. […] These clinical HIV-1 isolates also harbor additional RT gene mutations conferring NRTI-resistance and display a zidovudine-resistant phenotype (see Table 11 and Table 12).

For data set [7] the following is noted: twice daily hard gelatin capsules 25-100 mg/kg; cumulative dose levels as high as […]; cited from earlier work.
Setting [8] is: read-out: IC50, μM(Plaque Assay), Mean ± SE, mean over 9 zidovudine-resistant isolates.
[9] abbreviates: read-out: IC50, μM(Plaque Assay), isolate G190-6 (M41L, D67N, K70R, T215Y, K219Q).
Where [10] appears, read: read-out: IC50, μM(Plaque Assay), isolate G691-2 (mutations N.D.).
Where [11] appears, read: read-out: IC50, μM(Plaque Assay), isolate G704-2 (M41L, D67N, K70R, L210W, T215Y).
The mark [12] stands for this setting: read-out: IC50, μM(Plaque Assay), isolate G780-1 (M41L, D67N, K70R, T215F, K219Q).
The mark [13] stands for this setting: read-out: IC50, μM(Plaque Assay), isolate G890-1 (K20R, M41L, D67N, T69N, K70R, L210W, T215Y).
[14] abbreviates: read-out: IC50, μM(Plaque Assay), isolate H112-2 (no RT mutation, ZDV-sensitive control).
The mark [15] stands for this setting: read-out: IC50, μM(Plaque Assay), isolate J179-1 (M41L, D67N, L210W, T215Y).
[16] abbreviates: read-out: IC50, μM(Plaque Assay), isolate M709-1 (L1210W, T215Y).
The mark [17] stands for this setting: read-out: IC50, μM(Plaque Assay), isolate Q252-2 (M41L, L210W, T215Y).
Setting [18] is: read-out: IC50, μM(Plaque Assay), isolate U317-8 (M41L, L210W, T215Y).

Structures are written as SMILES. Read-outs that look alike come from different tables or passages of the source.

A word on the IC50: it is the point on the concentration scale where inhibition reaches its midpoint. For `Cc1cn([C@H]2C[C@H](N=[N+]=[N-])[C@@H](CO)O2)c(=O)[nH]c1=O` [AZT, 3′-azido-3′-deoxythymidine], the IC50 in data set [1] (setting [8]) was 3.9 ± 1 µM; in data set [1] (setting [9]), 10 µM; in data set [1] (setting [10]), 7.8 µM; in data set [1] (setting [11]), 5.7 µM; in data set [1] (setting [12]), 1.8 µM; in data set [1] (setting [13]) it was 3.6 µM. In addition, the IC50 amounted to 0.015 µM in data set [1] (setting [14]); 2.6 µM in data set [1] (setting [15]); 3 µM in data set [1] (setting [16]); 2.8 µM in data set [1] (setting [17]); 2 µM in data set [1] (setting [18]); 7 nM in data set [2] (Table 15, preliminary, first human source of PBMC). Further, the IC50 in data set [2] (Table 16, AZT values in nM per footnote) came out at 81.7 nM; in data set [2] (Table 17, later analysis from a larger sample pool), 4 ± 1 nM.

The term CC50 denotes the concentration giving 50% cytotoxicity. A higher CC50 goes with better tolerance by the cells. In the case of `COC(=O)C(C)NP(=O)(OC[C@@H]1C=C[C@H](n2cc(C)c(=O)[nH]c2=O)O1)Oc1ccc(Br)cc1` (stereo partly shown) [Compound 1c, d4T-5′-[p-bromo-phenylmethoxyalaninyl phosphate]], the “stability in gastric fluid” value in data set [3] (gastric fluid) is listed as “stable in gastric fluid”. Also, the “stability in intestinal fluid” value in data set [3] (intestinal fluid, forms Ala-d4T-MP) is reported as “decomposes readily in intestinal fluid”. For the same molecule, in data set [3] (plasma or whole blood), the “stability in plasma and whole blood” value is recorded as “readily metabolizes”. Besides, the “toxicity on daily administration” value in data set [4] (intraperitoneally or orally for up to 8 consecutive weeks, cumulative dose levels as high as 6.4 g/kg) is on record as “not associated with any detectable toxicity”. The “acute or subacute toxicity” value in data set [4] (single intraperitoneal or oral bolus dose levels as high as 500 mg/kg) was “without any detectable acute or subacute toxicity”. Further, the CC50 in data set [5] was over 100 µM. For the same molecule, the IC50 was 0.0794 ± 0.0187 µM in data set [1] (setting [8]); 0.1 µM in data set [1] (setting [9]); 0.06 µM in data set [1] (setting [10]); 0.08 µM in data set [1] (setting [11]); 0.015 µM in data set [1] (setting [12]); 0.04 µM in data set [1] (setting [13]). In addition, the IC50 was found to be 0.015 µM in data set [1] (setting [14]); 0.18 µM in data set [1] (setting [15]); 0.08 µM in data set [1] (setting [16]); 0.11 µM in data set [1] (setting [17]); 0.03 µM in data set [1] (setting [18]); 0.0794 ± 0.0187 µM in data set [1] (read-out: mean IC50 value (plaque assay), mean over 9 zidovudine-resistant isolates). Besides, the “cytotoxicity in MT2 cells” value in data set [6] is “without any evidence of cytotoxicity”. Further, the “tolerability of four-week treatment course” value in data set [7] is “very well tolerated”.
